Legend:
[1] = test system: IL-17, TNFα, IL-4; assay: Lung cytokine levels by cytometric bead array; assay type: in vivo; details: ova s/c mice
Description: The change of cytokine expression caused by compounds may be investigated in the lung of Ova S/C mice. Therefore, lungs of treated and non-treated asthmatic mice may be harvested, homogenized and cleared by centrifugation. Cytokines may be identified and quantified with specific antibodies and flow cytometry.
Anti-inflammatory properties of compounds in respect to cytokine production were investigated after the AHR measurement by harvesting the lungs of treated and non-treated Ova S/C mice (N=10). Whole lungs were homogenized in 200 μL of T-PER® tissue protein extraction reagent (Thermo Fisher Scientific Inc., Rockford, Ill.) containing 1× protease inhibitor cocktail using a hand-held tissue homogenizer. Homogenized lung samples were centrifuged at 10,000 RPM for 5 minutes to pellet cell/tissue debris. Tissue supernatant was collected for cytokine analysis using BD cytometric bead array mouse Th1/Th2/Th17 cytokine kit (BD Biosciences, San Jose, Calif.) following manufacturer's instruction. Data were analyzed using GraphPad Prism 4 (GraphPad Software, San Diego, Calif.) and expressed as mean±SEM. One-way analysis of variance (ANOVA) with Dunnet post hoc test was performed for statistical difference for multiple groups. […] Data represent mean±SEM from 10 mice in each group. *, **, and *** indicate p<0.05, p<0.01, and p<0.001 significance. The ova s/c mice expressed higher levels of IFN-γ, IL-6, and IL-2 but the change was not significant in comparison to normal mice.

[2] = test system: α1β3γ2 or α4β3γ2 GABAAR expressing HEK293T cells; assay: Automated patch clamp with EC20 GABA in HEK293T cells; assay type: cell-based; details: GABA EC20, 3 seconds application
[3] = test system: human airway smooth muscle; assay: Relaxation of acetylcholine contracted human airway smooth muscle strips; details: EC50 acetylcholine, 100 μM compound, 15-60 minutes
[4] = test system: GABAA receptor subtypes α1β3γ2, α2β3γ2, α3β3γ2, α4β3γ2 and α5β3γ2; assay: Two-electrode voltage clamp, modulation of GABA (EC3-5) elicited currents in Xenopus oocytes; assay type: cell-based
Description: Compounds having selective activity bias for α4 and α5-GABAAR can be identified. Patch clamp assays are used to quantify chloride flux induced inward currents resulting from agonism of GABAAR containing single α-subunits. […] For electrophysiological experiments with Xenopus oocytes (Ramerstorfer et al. European journal of pharmacology 2010, 636, 8-27) mature female Xenopus laevis (Nasco, Fort Atkinson, Wis., USA) were anaesthetized in a bath of ice-cold 0.17% Tricain (Ethyl-m-aminobenzoate) before decapitation and transfer of the frog's ovary to ND96 medium (96 mM NaCl, 2 mM KCl, 1 mM MgCl2, 5 mM HEPES; pH 7.5). Following incubation in 1 mg/ml collagenase (Sigma-Aldrich, St. Louis, Mo., USA) for 30 minutes, stage 5 to 6 oocytes were singled out of the ovary and defolliculated using a platinum wire loop. […] Maximum currents measured in mRNA injected oocytes were in the microampere range for all receptor subtypes. […] Data were digitized using a Digidata 1322A or 1550 data acquisition system (Axon Instruments, Union City, Calif., USA), recorded using Clampex 10.5 software (Molecular Devices, Sunnyvale, Calif., USA), and analyzed using Clampfit 10.5 and GraphPad Prism 6.0 (La Jolla, Calif., USA) software. […]

Compound: C[C@H]1N=C(c2ccccc2F)c2cc(Br)ccc2-n2cnc(C(=O)O)c21 [GL-II-93, (R)-8-bromo-6-(2-fluorophenyl)-4-methyl-4H-benzo[f]imidazo[1,5-a][1,4]diazepine-3-carboxylic acid]
- level of IL-4 in the mouse lung [1]: reduced the levels of IL-17, TNFα, and IL-4
- level of IL-17 in the mouse lung [1]: reduced the levels of IL-17
- level of TNFα in the mouse lung [1]: reduced the levels of IL-17, TNFα

Compound: CCOC(=O)c1ncn2c1[C@@H]1CCCN1C(=O)c1cc(O)ccc1-2 [RJ-02-50, ethyl (S)-7-hydroxy-9-oxo-11,12,13,13a-tetrahydro-9H-benzo[e]imidazo[5,1-c]pyrrolo[1,2-a][1,4]diazepine-1-carboxylate]
- GABAA receptor subtype selectivity, current response [2]: positive α4β3γ2-selective GABAA receptor modulator

Compound: C#Cc1ccc2c(c1)C(c1ccccc1F)=N[C@H](C)c1c(C(=O)O)ncn1-2 [SH-053-2′F-R-CH3-Acid, (R)-8-ethynyl-6-(2-fluorophenyl)-4-methyl-4H-benzo[f]imidazo[1,5-a][1,4]diazepine-3-carboxylic acid]
- human airway smooth muscle contractile force [3]: reduced the constriction of human airway smooth muscle after 15 minutes for a period of at least 60 minutes
- GABAA receptor subtype selectivity, modulation of GABA elicited currents [4]: positive α5β3γ2-selective GABAA receptor modulator

Source: patent US11447495B2, “Substituted benzo[f]imidazo[1,5-a][1,4]diazepines as GABA(a) receptor modulators” (priority 2016, dated 2022)
